Measured values taken from US8143403B2 (Bristol-Myers Squibb Company, priority 2008, dated 2012).

Key:
[1] = target: T1, CGRP receptors (SK-N-MC cell membranes) (Homo sapiens, UniProt O60894+Q16602); assay: Saturation/Scatchard analysis of [125I]-CGRP binding to SK-N-MC cell membranes
T1 construct: Crude membranes were prepared from SK-N-MC cells expressing CGRP receptors; endogenous in cells; host or cells: SK-N-MC cells (crude membranes)
Method: FIG. 1. [^125I]-CGRP Saturation/Scatchard Analysis. [^125I]-CGRP saturation using SK-N-MC membranes in the absence (filled squares) and presence (all others) of CGRP antagonist example 20. Inset depicts a Scatchard plot of same data.
Saturation/Scatchard Analysis. The nature of the interaction between the human CGRP peptide and example 20 was studied in detail using saturation binding experiments. The binding of increasing concentrations of [^125I]-CGRP to SK-N-MC cell membranes was measured in the absence (control condition) and in the presence of 300 pM and 600 pM example 20. Saturation data were analyzed using a one site binding equation to estimate apparent equilibrium dissociation constant (Kd) and the maximum number of binding sites (Bmax) (Prizm v4.0, Graphpad). The impact of the addition of example 20 to the binding parameters (Kd, Bmax) of [^125I]-CGRP binding was measured and compared. […] Example 20 was evaluated in 3 separate experiments (for representative dataset, see FIG. 1. [^125I]-CGRP Saturation/Scatchard Analysis). Functional Antagonism/Schild analysis. Agonist stimulation of CGRP receptor complex leads to cyclic AMP (adenosine 3′5′-cyclic monophosphate) production via Gs-dependent activation of an adenylate cyclase (Juaneda C et al., TiPS, 2000; 21:432-438). Consequently, CGRP receptor antagonists inhibit CGRP-induced cyclic AMP formation in SK-N-MC cells which natively express the CGRP receptor complex (Doods H et al., Br J Pharmacol, 2000; 129(3):420-423). Example 20 was evaluated for its ability to block CGRP induced cAMP formation using a commercially available cAMP HTRF kit (catalog number 62AM2PEC, CisBio International). […] The cells were lysed with lysis reagent and cAMP concentrations were determined by HTRF according to the manufacturer's instructions. A standard curve using known quantities of cAMP was evaluated in parallel to allow conversion of HTRF ratio to nM cAMP. The resulting curves were then evaluated using a Gaddum/Schild equation individually and with global fitting (Prizm v4.0, Graphpad). […]

Human CGRP Receptor = target: T2, Human CGRP Receptor (Homo sapiens, UniProt O60894+Q16602); assay: Radioligand binding assay, [125I]-CGRP displacement on SK-N-MC membranes; conditions: displacement of [125I]-CGRP (18 pM final), 2 h room temperature
T2 construct: Crude membranes were prepared from SK-N-MC cells expressing CGRP receptors; endogenous in cells; host or cells: SK-N-MC cells (crude membranes)
T2 sequence (Q16602 23-461): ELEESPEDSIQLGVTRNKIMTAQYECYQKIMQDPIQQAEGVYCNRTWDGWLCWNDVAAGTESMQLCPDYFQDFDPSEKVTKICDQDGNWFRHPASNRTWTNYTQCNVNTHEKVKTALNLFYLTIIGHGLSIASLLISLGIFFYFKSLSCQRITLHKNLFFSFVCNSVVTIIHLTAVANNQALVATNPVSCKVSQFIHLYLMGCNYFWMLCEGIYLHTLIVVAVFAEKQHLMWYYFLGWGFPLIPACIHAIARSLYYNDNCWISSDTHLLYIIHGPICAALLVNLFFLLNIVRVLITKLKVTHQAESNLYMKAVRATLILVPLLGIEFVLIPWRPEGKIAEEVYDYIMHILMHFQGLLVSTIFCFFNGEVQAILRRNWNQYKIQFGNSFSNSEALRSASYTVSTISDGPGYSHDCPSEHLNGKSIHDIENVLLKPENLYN
T2 sequence (O60894 27-148): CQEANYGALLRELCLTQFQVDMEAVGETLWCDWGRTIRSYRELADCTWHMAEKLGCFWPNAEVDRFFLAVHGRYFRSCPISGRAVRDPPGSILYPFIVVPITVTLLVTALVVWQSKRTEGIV
Method: Tissue Culture. SK-N-MC cells were grown at 37° C. in 5% CO2 as a monolayer in medium consisting of MEM with Earle's salts and L-glutamine (Invitrogen) supplemented with 10% fetal bovine serum (Invitrogen).
Membrane Preparation. Crude membranes were prepared from SK-N-MC cells expressing CGRP receptors. The cells were rinsed twice with phosphate-buffered saline (155 mM NaCl, 3.3 mM Na2HPO4, 1.1 mM KH2PO4, pH 7.4), and incubated for 5-10 min. at 4° C. in hypotonic lysis buffer consisting of 10 mM Tris (pH 7.4) and 5 mM EDTA. The cells were transferred from plates to polypropylene tubes (16×100 mm) and homogenized using a polytron. Homogenates were centrifuged at 32,000×g for 30 min. The pellets were resuspended in cold hypotonic lysis buffer with 0.1% mammalian protease inhibitor cocktail (Sigma) and assayed for protein concentration. The SK-N-MC homogenate was aliquoted and stored at −80° C. Radioligand Binding Assay. The compounds of invention were solubilized and carried through serial dilutions using 100% DMSO. Aliquots from the compound serial dilutions were further diluted 25 fold into assay buffer (50 mM Tris-Cl pH 7.5, 5 mM MgCl2, 0.005% Triton X-100) and transferred (volume 50 μl) into 96 well assay plates. [^125I]-CGRP (GE Healthcare or Perkin-Elmer) was diluted to 72 pM in assay buffer and a volume of 50 μl was added to each well. SK-N-MC membranes were thawed, diluted in assay buffer with fresh 0.1% mammalian protease inhibitor cocktail (Sigma), and re-homogenized. SK-N-MC homogenate (7 μg/well) was added in a volume of 100 μl. The assay plates were then incubated at room temperature for 2 h. Assays were stopped by addition of excess cold wash buffer (50 mM Tris-Cl pH 7.5, 0.1% BSA) immediately followed by filtration over glass fiber filters (Whatman GF/B) previously soaked in 0.5% PEI. Non-specific binding was defined with 1 μM beta-CGRP (Bachem). Protein bound radioactivity was determined using a gamma or scintillation counter. The resulting data was analyzed using a four parameter competitive binding equation (XLfit v2.0) and the IC50 was defined as the concentration of a compound of invention required to displace 50% of radioligand binding. Final assay concentration of [^125I]-CGRP was 18 pM. […] All compounds of invention were evaluated in at least two separate experiments.

T1 sequence (Q16602 23-461): as the sequence (Q16602 23-461) above
T1 sequence (O60894 27-148): as the sequence (O60894 27-148) above

SMILES: O=C(O[C@@H]1CC[C@@H](c2cccc(F)c2F)Cc2cccnc21)N1CCC(n2c(=O)[nH]c3ncccc32)CC1 [Example 20]
- effect on maximum binding sites of [125I]-CGRP binding (Bmax) ([1]; 300 pM and 600 pM example 20 vs control): without significantly changing the maximum binding sites
- effect on Kd of [125I]-CGRP binding ([1]; 300 pM and 600 pM example 20 vs control, 3 experiments): dose-dependently increased the Kd
- mechanism of inhibition of [125I]-CGRP binding ([1]; saturation binding): competitive mechanism of inhibition
- IC50 (Human CGRP Receptor): 0.12 nM
